Laboratory results from the supplement of paper PMC10307832.

Key:
Assay in all cases: relative viability (nuclei count vs DMSO), 5 days (fraction); higher = more cells survive
Vemurafenib + Lapatinib = compound: CCCS(=O)(=O)Nc1ccc(F)c(C(=O)c2c[nH]c3ncc(-c4ccc(Cl)cc4)cc23)c1F [Vemurafenib] + CS(=O)(=O)CCNCc1ccc(-c2ccc3ncnc(Nc4ccc(OCc5cccc(F)c5)c(Cl)c4)c3c2)o1 [Lapatinib] (partner 2 µM)
Outline: (§1)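 Medians of duplicate plates are given as relative viability. That measure is the nuclei count in treated wells divided by the count in vehicle wells. Counts were taken on 4× images of lung cancer cell lines in 1536-well plates, 5 days after pin-tool dosing the day after seeding with one drug alone or a fixed anchor-drug dose plus five library-drug doses (not always all listed) in √10 steps.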

Vemurafenib + Vorinostat = compound: CCCS(=O)(=O)Nc1ccc(F)c(C(=O)c2c[nH]c3ncc(-c4ccc(Cl)cc4)cc23)c1F [Vemurafenib] + O=C(CCCCCCC(=O)Nc1ccccc1)NO [Vorinostat] (partner 1 µM)
Outline: as §1

OSI-027 + Olaparib = compound: COc1cccc2cc(-c3nc([C@H]4CC[C@H](C(=O)O)CC4)n4ncnc(N)c34)[nH]c12 [OSI-027] + O=C(c1cc(Cc2n[nH]c(=O)c3ccccc23)ccc1F)N1CCN(C(=O)C2CC2)CC1 [Olaparib] (partner 8 µM)
Outline: as §1

Alpelisib + AZD7762 = compound: Cc1nc(NC(=O)N2CCC[C@H]2C(N)=O)sc1-c1ccnc(C(C)(C)C(F)(F)F)c1 [Alpelisib] + NC(=O)Nc1cc(-c2cccc(F)c2)sc1C(=O)N[C@H]1CCCNC1 [AZD7762] (partner 0.2 µM)
Outline: as §1

Cell Line	relative viability (Vemurafenib + Lapatinib; first compound 0.03162 µM)	relative viability (Vemurafenib + Lapatinib; first compound 0.1 µM)	relative viability (Vemurafenib + Lapatinib; first compound 0.3162 µM)	relative viability (Vemurafenib + Lapatinib; first compound 1 µM)	relative viability (Vemurafenib + Vorinostat; first compound 0.03162 µM)	relative viability (Vemurafenib + Vorinostat; first compound 0.1 µM)	relative viability (Vemurafenib + Vorinostat; first compound 0.3162 µM)	relative viability (Vemurafenib + Vorinostat; first compound 1 µM)	relative viability (OSI-027 + Olaparib; first compound 0.01 µM)	relative viability (OSI-027 + Olaparib; first compound 0.03162 µM)	relative viability (OSI-027 + Olaparib; first compound 0.1 µM)	relative viability (OSI-027 + Olaparib; first compound 0.3162 µM)	relative viability (OSI-027 + Olaparib; first compound 1 µM)	relative viability (Alpelisib + AZD7762; first compound 0.04 µM)	relative viability (Alpelisib + AZD7762; first compound 0.1265 µM)	relative viability (Alpelisib + AZD7762; first compound 0.4 µM)	relative viability (Alpelisib + AZD7762; first compound 1.265 µM)	relative viability (Alpelisib + AZD7762; first compound 4 µM)
201T	0.965	1.02	1.02	1.04	0.944	0.845	0.944	0.986	0.909	0.908	0.838	0.887	0.802	0.616	0.636	0.546	0.477	0.469
A549	0.902	0.964	1.06	1.07					0.465	0.258	0.305	0.282	0.0927					
A-427	0.907	1.07	0.973	1.04	0.807	0.819		0.875	0.817	0.835	0.643	0.593	0.506	0.712	0.649	0.72	0.574	0.617
ABC-1	1.19	0.991	1.35	0.973	1.06	0.972	0.831	1.45	0.667	0.686	0.795	0.859	0.404	0.996	0.875	1.2	0.598	0.69
BEN	0.765	0.77	0.323	0.525	0.494	0.592	0.402	0.503	1.15	1.19	0.769	0.554	0.527	0.67	0.59	0.756	0.825	0.549
CAL-12T	0.63			0.618	0.673	0.698	1.04	0.875	0.751	0.749	0.777	0.53	0.335	0.7	0.593	0.754	0.566	0.643
COR-L23	1.01	0.91	0.684	0.98	0.443	0.412	0.373	0.441	0.377	0.335	0.208	0.401	0.279					
COR-L 105	0.348		0.32	0.373	0.838		0.903	0.815	0.713	0.722	0.726	0.571	0.685					
Calu-6	1.02	1.06	1.01	0.924					0.568	0.621	0.637	0.64	0.577					
ChaGo-K-1					0.743	0.762	0.605	0.762	0.429	0.423	0.451	0.415	0.317	0.865	0.909	0.875	0.791	0.672
EBC-1	0.201	0.214	0.245	0.261					0.662	0.736	0.67	0.579	0.331					
EKVX	0.189		0.253	0.208	0.712		0.745	0.936	0.659	0.935	0.88	0.832	0.516	0.868	0.662	0.675	0.636	0.533
EMC-BAC-2	0.874	0.916	0.812	0.882	0.361	0.411		0.415	0.487	0.489	0.468	0.402	0.29	1.1	1.05	0.946	0.832	0.581
EPLC-272H	0.913	1	0.423	0.939	0.553	0.4	0.528	0.543	0.714	0.495	0.661	0.386	0.298	0.237	0.251	0.24	0.271	0.186
H3255	0.254		0.283	0.28	0.758		0.709	0.638	0.595	0.555	0.588	0.569	0.409	0.86	0.88	1.32	0.799	0.864
HARA	0.745		0.782	0.625	0.424	0.517	0.399	0.54	0.771	0.499	0.841	0.616	0.352	0.364	0.334	0.398	0.249	0.442
HCC-15	0.786	0.849	0.613	0.773	0.775	0.8	0.899	0.805	0.799	0.745	0.729	0.683	0.397	1.23	1.35	1.32	1.05	0.908
HCC-44	0.991	0.993	0.935	1.04	1.09	1.01	1.09	1.16	1.06	1.01	1	1	0.716	1	1.02	1.02	1.03	1.07
HCC-78	0.725	0.832	0.982	0.386	0.425	0.351	0.79	0.4	0.769	0.699	0.723	0.558	0.397	0.726	0.515	0.293	0.362	0.377
HCC-366	1.09	1.07		1.05	0.271	0.38		0.306	0.331	0.386	0.417	0.386	0.219	0.317	0.316	0.307	0.183	0.072
